From PubChem BioAssay AID602210 (Sanford-Burnham Center for Chemical Genomics, 2012) come the findings set out here.

Active and inactive are the calls of the source. How the calls were made is not given here.

In general, IC50 refers to the point on the concentration scale where inhibition reaches its midpoint.

This assay is described as follows: modulators of 2-deoxyglucose-induced H9c2 death, dose response, myocardial damage modulator project, cell-based, ATPlite luminescence, rat, set 2 (AID 602210). Particulars: H9c2 rat cardiomyoblasts, 2-deoxyglucose-induced death, 2 h. For orientation: In ATP-based viability assays light output follows the ATP content of the culture.
For the molecule `CCN(CC)C(=O)c1ccc2c3c(cccc13)C(=O)N(CCc1ccc(OC)c(OC)c1)C2=O`, the IC50 was 25 µM (inactive).

Consider `O=c1[nH]c(CSc2nnc(-c3cccnc3)n2C2CCCCC2)nc2ccccc12`, for which the IC50 was > 79 µM (inactive).

Consider `COc1cc(C(=O)N/N=C/c2ccc(OC(=O)c3cccc(C)c3)c(OC)c2)ccc1O`, for which the IC50 was 14.2 µM (inactive).

For `COc1ccc(NC(=O)c2cc(-c3ccc(OC)c(OC)c3)nc3ccccc23)c(OC)c1`, the IC50 was > 79 µM (inactive).

For `COc1cc(NC(=O)c2cccc3c(-c4cnn(C)c4)coc23)cc(OC)c1OC`, the IC50 was > 79 µM (inactive).

As to `CCOc1ccccc1N1CC(O)=C(c2nc3ccccc3s2)C1=N`, the IC50 was 13.8 µM (inactive).

Regarding `COc1ccc2oc(C(=O)Nc3ccc(N4CCOCC4)cc3)c(C)c2c1`, the IC50 is > 79 µM (inactive).

Regarding `COc1ccccc1NC(=O)COc1ccc(C(=O)OCC(=O)NC(C)(C)C)cc1OC`, the IC50 is 23.9 µM (inactive).

Consider `COc1ccc2[nH]c(=O)c(CN(CC3CCCO3)S(=O)(=O)c3ccccc3F)cc2c1` (stereo not given), for which the IC50 is 19.2 µM (inactive).

`COc1ccc2occ(C(=O)c3coc4ccc(O)c(CN(C)C)c34)c2c1`: the IC50 was 68 µM (inactive).

Take `COc1cc(OC)cc(-c2cc3nc(C)c(CCC(=O)Nc4nc(C)cs4)c(C)n3n2)c1`: the 50% inhibitory concentration (IC50) is 6.24 µM.

As to `O=C(/C=C\c1cn(-c2ccccc2)nc1-c1ccc2c(c1)OCCO2)N1CCOCC1`, the IC50 is > 79 µM (inactive).

For `O=C(CNC(=O)c1nc[nH]c1C(=O)NCC(=O)OCc1ccccc1)OCc1ccccc1`, the half-maximal inhibitory concentration (IC50) was 0.953 µM.

Turning to `CCOC(=O)C1=C(C)Nc2ccccc2N=C1NC(=O)c1oc2ccccc2c1COC`, the half-inhibitory concentration (IC50) was 6.98 µM.

`Cc1c(OCC(=O)NCCN2CCOCC2)ccc2c1oc(=O)c1ccccc12`: the IC50 is 17.1 µM (inactive).

As to `Cc1cc(NC(=O)C2CCCCC2)nc2c1c(=O)oc1ccccc12`, the IC50 was 26.8 µM (inactive).

Regarding `O=C(CSc1nnc(-c2ccccc2)n1Cc1ccccc1)NNC(=O)c1ccccc1O`, the IC50 is > 79 µM (inactive).

Consider `COc1ccc(-c2csc(NC(=O)c3ccc(OCC(=O)N4CCOCC4)c(OC)c3)n2)cc1OC`, for which the IC50 is 10.9 µM (inactive).

As to `CC(C)N1C(=O)S/C(=C/c2ccc3c(c2)n(C)c(=O)n3C)C1=O`, the concentration for half-maximal inhibition (IC50) was 7.32 µM.

`Cc1ccc(-c2nnc(NCc3nc4ccccc4[nH]3)c3ccccc23)cc1S(=O)(=O)N1CCOCC1`: the IC50 was 11.3 µM (inactive).

Consider `CC1Nc2ncnc(N3CCN(c4ccccc4)CC3)c2N(Cc2ccc(Br)cc2)C1=O` (stereo not given), for which the IC50 is > 79 µM (inactive).

For the molecule `O=C(N/N=C/c1cn(-c2ccccc2)nc1-c1cccnc1)c1ccccc1`, the IC50 was > 79 µM (inactive).

As to `COc1ccc(NC(=O)c2oc3ccc(S(=O)(=O)N4CCOCC4)cc3c2C)cc1`, the IC50 was 15.3 µM (inactive).

On to `CC(=O)N1CCN(c2ccccc2NC(=O)c2ccc(-c3cccc([N+](=O)[O-])c3)o2)CC1`, for which the IC50 is 6.88 µM.

With `COc1ccc(-c2oc(=O)c3cc(OC)c(OC)cc3c2C#CCCO)cc1`, the IC50 was 21.7 µM (inactive).

In the case of `COc1ccc(-c2csc(NC(=O)c3cccc(N4C(=O)CCC4=O)c3)n2)cc1OC`, the IC50 is 13.1 µM (inactive).

Turning to `Cc1[nH]c2ccccc2c1/C=N/NC(=O)c1cc(-c2ccccc2)n[nH]1`, the 50% inhibitory concentration (IC50) is 8.98 µM.

As to `O=C(Nc1cccc2cccnc12)c1ccc2sc([C@H]3C[C@H](O)[C@@H](CO)O3)nc2c1`, the IC50 was 24.3 µM (inactive).

With `Cc1nc(N2CCN(c3ccccn3)CC2)c2c(C)c(C(=O)Nc3ccccc3F)sc2n1`, the IC50 was 16.4 µM (inactive).

For the molecule `Cc1ccc(NC(=O)c2nc[nH]c2C(=O)NCCCCCCNC(=O)c2[nH]cnc2C(=O)Nc2ccc(C)cc2)cc1`, the IC50 was 0.24 µM.

Turning to `Cn1c(-n2c(CCCN3C(=O)c4ccccc4C3=O)nc3ccccc3c2=O)nc2ccccc21`, the IC50 is > 79 µM (inactive).

Take `Nc1c(C(=O)N/N=C/c2cccnc2)oc2nc(-c3ccco3)cc(-c3ccco3)c12`: the 50% inhibitory concentration (IC50) is 1.63 µM.

Turning to `COc1ccc(-c2cc(NC(C)=O)c3ncc(-c4cccc(C(C)=O)c4)n3c2)cc1OC`, the IC50 was 8.06 µM.

For the molecule `Nc1nonc1-n1nnc(C(=O)N/N=C/c2ccccn2)c1CNc1ccccc1`, the IC50 was 41.4 µM (inactive).

`CCOC(=O)C1CCN(c2cc3c(cc2NC(=O)c2ccc(OC)c(OC)c2)n(C)c(=O)n3C)CC1`: the IC50 was 4.59 µM.

In the case of `CC(OC(=O)c1cc(-c2cccnc2)nc2ccccc12)C(=O)Nc1ccc2ccccc2c1` (stereo not given), the IC50 is 14.3 µM (inactive).

As to `CC(C)(C)OC(=O)CNC(=O)c1[nH]cnc1C(=O)NCC(=O)OCc1ccccc1`, the IC50 is 4.16 µM.

For the molecule `CN1CCc2nc3ccccc3c(C(=O)OCC(=O)N(CCC#N)c3ccccc3)c2C1`, the IC50 was > 79 µM (inactive).

For `O=c1c2ccccc2nc(CSc2ncnc3nc[nH]c23)n1-c1ccc(Cl)c(Cl)c1`, the IC50 was 14.7 µM (inactive).

Regarding `CC(=O)c1cccc(NC(=O)Nc2ccc3c(c2)N(C)C(=O)CS3)c1`, the IC50 is > 79 µM (inactive).

Regarding `Cc1nn(-c2ccccc2)nc1C(=O)Nc1cccc(C(=O)NC2CC2)c1`, the IC50 is 18.6 µM (inactive).

With `COc1cc(/C=C/c2nc3ccccc3c(=O)n2-c2ccccc2O)ccc1O`, the IC50 was 27.5 µM (inactive).

Consider `CCOC(=O)C1=C(COC(=O)/C=C/c2ccc(F)cc2)NC(=O)NC1C` (stereo not given), for which the IC50 is 18.1 µM (inactive).

Regarding `COc1cc2c(cc1OC)CN(c1nc(-c3cccnc3)nc3ccccc13)CC2`, the IC50 was 6.71 µM.

As to `O=C(CN1C(=O)C2C3C=CC(C3)C2C1=O)Nc1nc(-c2ccccn2)cs1` (stereo not given), the IC50 is 24.7 µM (inactive).

In the case of `CCC(C)N1C(=O)S/C(=C/c2ccc3c(c2)n(C)c(=O)n3C)C1=O` (stereo not given), the IC50 is > 79 µM (inactive).

Turning to `COc1cc(-c2cc(NC(C)=O)c3ncc(-c4ccc(C(C)=O)cc4)n3c2)cc(OC)c1OC`, the half-inhibitory concentration (IC50) was 7.42 µM.

Take `O=C(c1cc2nc(-c3ccccc3)cc(-c3ccccc3)n2n1)N1CCN(C(=O)c2ccco2)CC1`: the IC50 was 10.3 µM (inactive).

Consider `CC(C)C(=O)N1CCN(c2ccc(NC(=O)COc3ccccc3[N+](=O)[O-])cc2)CC1`, for which the IC50 is 5.55 µM.

Turning to `CC(C)(C)NC(=O)COC(=O)c1c2c(nc3ccccc13)CCC2`, the IC50 was 16.7 µM (inactive).

Turning to `COc1ccc(-c2nn(-c3ccccc3)cc2C(=O)Nc2nccs2)cc1`, the IC50 is 16.4 µM (inactive).

For `CNC(=O)c1cccc(NC(=O)c2cc(-c3ccccc3)nc3c2cnn3C(C)C)c1`, the IC50 was 14.3 µM (inactive).

`COc1ccc(CCn2c(=N)c(C(=O)NCC3CCCO3)cc3c(=O)n4cccc(C)c4nc32)cc1OC` (stereo not given): the IC50 was > 79 µM (inactive).

Turning to `COC(=O)c1ccc(N)c(N=CC2=C(O)CC(C)(C)CC2=O)c1`, the IC50 is 11.9 µM (inactive).

In the case of `O=C(NC1CCCCC1)C(c1ccc2ncccc2c1)N(Cc1cccs1)C(=O)c1cccs1` (stereo not given), the IC50 was 27.4 µM (inactive).

As to `COc1cccc(Nc2nc(-c3sc(NC(=O)c4ccco4)nc3C)cs2)c1`, the IC50 was 9.04 µM.

Take `COc1cc(/C=C/c2nc3ccccc3c(=O)n2-c2ccc(O)cc2)ccc1O`: the IC50 was > 79 µM (inactive).

With `CCC(=O)Oc1cccc(C(=O)Nc2ccc(-c3nnc(-c4ccco4)o3)cc2)c1`, the IC50 was > 79 µM (inactive).

`COCc1c(C(=O)Nc2ccc3nc(N4CCOCC4)sc3c2)oc2ccccc12`: the IC50 was 15 µM (inactive).

For `COc1ccc(-c2cc(C(F)(F)F)n3nc(C(=O)N4CCN(C(=O)c5ccco5)CC4)cc3n2)cc1`, the IC50 was 3.79 µM.

In the case of `COCCN1Cc2cccc(C(=O)Nc3cccc(-c4nc5ccccc5[nH]4)c3)c2C1=O`, the IC50 was 3.71 µM.

Take `O=C(C[C@@H]1C/C=C/CC[C@@H](Cc2ccc(F)cc2)C(=O)O[C@@H](c2ccccc2)CNC1=O)NCCO`: the IC50 was 27.5 µM (inactive).

For `CC(C)(C)OC(=O)C[C@@H]1C/C=C\C[C@@H](CC(=O)N[C@@H](CO)Cc2ccccc2)C(=O)NC[C@@H](c2ccccc2)OC1=O`, the IC50 was 22.6 µM (inactive).

In the case of `COC(=O)c1ccc(OCC(=O)Nc2ccccc2C(=O)NC2CC2)cc1`, the IC50 is 11.2 µM (inactive).

Consider `CCOC(=O)N1CCC(n2c(SCC(=O)N3CCC(C)CC3)nc3ccccc3c2=O)CC1`, for which the IC50 is 31.6 µM (inactive).

As to `Cc1ccc2nc(-c3ccccc3)cc(C(=O)NNC(=O)c3csc(N4CCOCC4)n3)c2c1`, the IC50 is 12.4 µM (inactive).

Regarding `CN(C)C(=O)/C=C\c1cn(-c2ccccc2)nc1-c1ccc2c(c1)OCCO2`, the IC50 is 29.4 µM (inactive).

Consider `Cc1cccc(NC(=O)c2cc(-c3ccco3)nc3ccccc23)n1`, for which the IC50 is 12.2 µM (inactive).

As to `COc1ccc(OC)c(/C=N/NC(=O)c2cc3c(OC)c(OC)ccc3[nH]2)c1`, the 50% inhibitory concentration (IC50) was 8.62 µM.

Take `Cc1cccc(NC(=O)c2nc[nH]c2C(=O)NCCCNC(=O)c2[nH]cnc2C(=O)Nc2cccc(C)c2)c1`: the IC50 was > 79 µM (inactive).

On to `Cc1ccc(C=NNc2nc3c([nH]2)c(=O)n(C)c(=O)n3C)cc1`, for which the IC50 was 11 µM (inactive).

With `O=C(c1cc(=O)[nH]c2ccccc12)N1CCN(S(=O)(=O)c2ccc3ccccc3c2)CC1`, the IC50 is 17.4 µM (inactive).

`COc1cccc(-c2cnc3c(NC=O)cc(-c4ccc(O)c(OC)c4)cn23)c1`: the IC50 was 8.51 µM.

Consider `COC(=O)c1cc(NC(=O)Nc2cc(OC)ccc2OC)cc(C(=O)OC)c1`, for which the IC50 was > 79 µM (inactive).

`O=C(NCC(=O)N(Cc1cccs1)C(C(=O)NC1CCCCC1)c1ccco1)c1cccs1` (stereo not given): the IC50 is 17 µM (inactive).

In the case of `CCOCCn1ccc2c(OCC(=O)Nc3cc(OC)ccc3OC)cccc2c1=O`, the IC50 is > 79 µM (inactive).

As for `COc1ccc(C(=O)Nc2cccc(/C(C)=N/NC(=O)c3ccc([N+](=O)[O-])c(C)c3)c2)cc1OC`, the IC50 was 18.7 µM (inactive).

For `COc1cccc2cc(-c3cc(=O)oc4ccc(OCC(C)=O)cc34)oc12`, the IC50 was > 79 µM (inactive).

Regarding `COc1cc(OC)cc(C(=O)Nc2ccc(-c3nc4ccccc4o3)cc2)c1`, the IC50 was 13.7 µM (inactive).

On to `COc1ccc(CSc2nc3ccccc3c(=O)[nH]2)cc1F`, for which the IC50 is > 79 µM (inactive).
